Test results taken from patent US11725015B2, “Macrocyclic compound and uses thereof” (President and Fellows of Harvard College, priority 2017, dated 2023).

Key:
[1] = tested on: CD31-positive vessel in the FaDu subcutaneous model; test: Effect on CD31-positive vessel in the FaDu subcutaneous model in mice (Test Example 9); format: in vivo; conditions: five days after administration
Procedure: A human squamous cell carcinoma of the head and neck (SCCHN) cell line FaDu, which had been cultured in an RPMI-1640 medium containing 10% FBS, and penicillin and streptomycin, was adjusted to a concentration of 5×10^7 cells/mL with PBS to prepare a cell suspension. The cell suspension was inoculated in a volume of 100 μL into a subcutaneous part of a right flank of nude mice, 7 weeks of ages (CAnN.Cg-Foxnlnu/CrlCrlj, female, Charles River Laboratories Japan, Inc.). Ten days after cell inoculation, a test compound in saline with 100 μM of hydroxypropyl-β-cyclodextrin was intravenously administered at doses from ½ MTD to MTD. The experiment was conducted on groups each consisting of 3 mice. Five days after administration, tumor samples were collected and fixed with IHC Zinc Fixative (BD Pharmingen) at 4° C. for 24 hr. Paraffin-embedded tissues were sectioned (3 μm), mounted on positively charged slides, and air-dried. Immunohistochemical staining of CD31 was conducted using Ventana autostainer model Discover XT (Roche Diagnostics) according to the manufacture's protocol. Sections were deparaffinized, conditioned and the antigens were retrieved with CC1 (Ventana Medical Systems). Slides were blocked with Blocker A and Blocker B (Endogenous biotin blocking kit, Roche Diagnostics). Rat anti-mouse IgG CD31 antibody (Dianova GmbH) was applied at 2 μg/mL. […]
Immunostained slides were scanned using Vectra 2 Automated Slide Imaging System (Perkin Elmer Inc.). The number of blood vessels in the whole tumor was quantified by counting the CD31-positive objects using inForm 2 software (PerkinElmer Inc.) Area of the tumor region was measured by assessing the hematoxylin-staining area using inform 2 software (PerkinElmer Inc.) The number of blood vessels was normalized by the area of the tumor region. An increase rate of the blood vessel number of the test compound-dosing group was calculated with the below formula, and shown in Table 9. […]

[2] = tested on: human breast cancer cell line MDA-MB231; test: MDA-MB231 growth inhibition assay; format: cell-based; conditions: 3 days incubation, CellTiter-Glo
Procedure: In this assay, the growth inhibitory activity of test compounds in a human breast cancer cell line MDA-MB231 was measured. MDA-MB231 cells were maintained in Dulbecco's Modified Eagle's medium (Wako Pure Chemical Industries, Ltd., 044-29765) medium containing 10% fetal bovine serum (FBS: Nichirei, 12D168), and penicillin and streptomycin in a 5% CO2 incubator (37° C.). To each well of a 96 well plate (Becton, Dickinson and Company, 353219), 75 μL of MDA-MB231 cell suspension adjusted to a concentration of 4×10^4 cells/mL with the culture medium was added, and the cells were incubated overnight in a 5% CO2 incubator (37° C.). On the next day, 25 μL of Compound (1) or Halichondrin B in three-fold dilution series suspended in the culture medium was added to each well, and the resultant was incubated for 3 days in a 5% CO2 incubator (37° C.). Then, cell viability was determined by CellTiter-Glo® Luminescent Cell Viability Assay (Promega) with EnVision 2103 Multilabel Reader (Perkin-Elmer, Wellesley, Mass.). Value of the wells containing cells without adding the test compounds was defined as 100% and the value of the wells containing no cells was defined as 0%. The concentration of the test compound necessary for inhibiting the cell growth by 50% (i.e., an IC50 value) was calculated, and shown in Table 2.

[3] = tested on: HEC-108 (human endometrial cancer) xenograft; test: Antitumor effects in HEC-108 endometrial cancer xenograft model in mice as monotherapy; format: in vivo; conditions: 180 μg/kg intravenously on Day 1 and Day 8
Procedure: A human endometrial cancer cell line HEC-108, which had been cultured in an E-MEM containing 15% FBS and antibiotics were adjusted to a concentration of 7.14×10^7 cells/mL with medium to prepare a cell suspension. The cell suspension was inoculated in a volume of 150 μL into a subcutaneous part of a right flank of athymic mice (CAnN.Cg-Foxnlnu/CrlCrlj, female, 6 weeks old, Charles River Japan Inc.). Thirteen days after cell inoculation (Day 1), the length and the width of a tumor in each mouse were measured by using an electronic digital caliper (Mitutoyo Corporation), so as to calculate the volume of the tumor in accordance with the following calculation formula: Tumor volume (mm^3)=Longest diameter (mm)×Shortest diameter (mm)×Shortest diameter (mm)/2 Relative tumor volume (RTV)=Tumor volume (day X)/Tumor volume (the first day)
On the basis of TV, the mice were randomly grouped (Day 1). Each group was consisted in six mice. Compound (1) was dissolved in DMSO and a solution was stored in the freezer before use. Compound (1) (180 μg/kg) was diluted in saline and intravenously injected on Day 1 and Day 8.

[4] = tested on: OE33 (human adenocarcinoma of the esophagus); test: In vitro antiproliferative activity, OE33; format: cell-based; conditions: OE33, 72 hours
Procedure: The in vitro antiproliferative assays for Compound (1) were conducted using a small panel of cancer cell lines including human squamous cell carcinoma of the esophagus (OE21, TE-8), human adenocarcinoma of the esophagus (OE33), and human uterine sarcoma (MES-SA, MES-SA-Dx5-Rx1). All cell lines were cultured in RPMI-1640 medium containing 10% FBS, and penicillin-streptomycin (culture medium), in a 5% CO2 incubator (37° C.). To each well of a 96 well plate (Becton, Dickinson and Company, 353219), 75 μL of cell suspension adjusted to a concentration of 4×10^4 cells/mL with the culture medium was added, and the cells were incubated overnight in a 5% CO2 incubator (37° C.). On the next day, 25 μL of Compound (1) in three-fold dilution series suspended in the culture medium was added to each well, and the resultant was incubated for 72 hours in a 5% CO2 incubator (37° C.). Then, cell viability was determined by CellTiter-Glo® Luminescent Cell Viability Assay (Promega) with 2013 EnVision™ Multilabel Reader (Perkin-Elmer, Wellesley, Mass.). Value of the wells containing cells without adding the test compounds was defined as 100% and the value of the wells containing no cells was defined as 0%. […] The P-gp susceptibility was calculated as the ratio of the IC50 value in MES-SA-Dx5-Rx1 cells, which overexpress P-gp, to the IC50 value in MES-SA cells.

SMILES | Increase rate of blood vessel number (%) ([1]; 0.10 mg/kg intravenously) | IC50 [2] | antitumor activity [3] | antiproliferative activity [4] | Increase rate of blood vessel number (%) ([1]; 0.025 mg/kg intravenously) | Increase rate of blood vessel number (%) ([1]; 0.05 mg/kg intravenously)
C=C1C[C@@H]2CC[C@@]34C[C@H]5O[C@H]6[C@@H](O3)[C@H]3O[C@H](CC[C@@H]3O[C@H]6C5O4)CC(=O)O[C@@H]3[C@@H](C)[C@@H]4O[C@@H]5C[C@]6(C[C@@H]7O[C@]8(C[C@H](C)[C@@H]9O[C@H](CN)[C@H](O)C[C@@H]9O8)C[C@H](C)[C@@H]7O6)O[C@@H]5C[C@@H]4O[C@H]3C[C@H]3O[C@@H](CC[C@@H]1O2)C[C@@H](C)C3=C [Compound (1)] | 69% | 0.109 nM | tumor growth delay | potent antiproliferative agent |  | 
C=C1C[C@@H]2CC[C@@]34C[C@H]5O[C@H]6[C@@H](O3)[C@H]3O[C@H](CC[C@@H]3O[C@H]6[C@H]5O4)CC(=O)O[C@@H]3[C@@H](C)[C@@H]4O[C@@H]5C[C@]6(C[C@@H]7O[C@]8(C[C@H](C)[C@@H]9O[C@H]([C@@H](O)C[C@@H](O)CO)C[C@@H]9O8)C[C@H](C)[C@@H]7O6)O[C@@H]5C[C@@H]4O[C@H]3C[C@H]3O[C@@H](CC[C@@H]1O2)C[C@@H](C)C3=C [Halichondrin B, reference compound] |  |  |  |  | 31% | 39%
